For assay [1], the system named is KB. The experiment in a line: Cytotoxicity against human KB cells. Type of assay: functional, cell-based.
Assay [2] in a line: Inhibition of nitric oxide synthase in mouse BV2 cells assessed as inhibition of LPS-induced NO production. Type of assay: cell-based. The note with it: BV-2.
Assay [3] is described as follows: Cytotoxicity against human KB-VIN cells. Type of assay: functional, cell-based. The settings on record: KBVIN.
The subject of assay [4] is MCF7. The experiment in a line: Cytotoxicity against human MCF7 cells. Type of assay: functional, cell-based.
The subject of assay [5] is A549. The experiment in a line: Cytotoxicity against human A549 cells. Type of assay: functional, cell-based.
The test system of another assay is BV-2. In words: Inhibition of NADPH oxidase in mouse BV2 cells assessed as NOX-dependent ROS production at 50 uM. It is filed as cell-based.
The test system of assay [6] is A549. In words: Cytotoxicity against human A549 cells at 20 ug/ml. It is filed as functional.
Assay [7] deals with KB. In words: Cytotoxicity against human KB cells at 20 ug/ml. It is filed as functional.
Assay [8] deals with MCF7. The experiment in a line: Cytotoxicity against human MCF7 cells at 20 ug/ml. It is filed as functional.
A short description of assay [9]: Cytotoxicity against human KB-VIN cells at 20 ug/ml. It is filed as functional. The settings on record: KBVIN.
Assay [10] can be described thus: Inhibition of NADPH oxidase in mouse BV2 cells assessed as NOX-dependent ROS production. The settings on record: BV-2.

Our source for the EC50, IC50 and inhibition values is ChEMBL document CHEMBL1141451, “Crotonkinins A and B and related diterpenoids from Croton tonkinensis as anti-inflammatory and antitumor agents” (J Nat Prod, 2007).

≈ marks a conversion by molar mass, not a printed value.

In general, EC50 refers to the concentration that produces a half-maximal response. Read a high EC50 as lower potency in that assay. What is called IC50 is the concentration that gives 50% inhibition. A word on the inhibition: it is the change of the read-out against control, counted positive when it falls.

In the case of `C=C1C(=O)[C@@]23CC[C@H]4[C@@](C)(CCC[C@]4(C)C(=O)O)[C@@H]2CC[C@@H]1C3`, the EC50 in the assay on KB [1] came out at 1.04 µg/mL (≈ 3.29 µM); in assay [3], 1.08 µg/mL (≈ 3.41 µM); in the assay on MCF7 [4], 2.69 µg/mL (≈ 8.5 µM); in the assay on A549 [5], 3.91 µg/mL (≈ 12.4 µM). Also, the IC50 in [2] turned out to be 2.6 µM. The inhibition in the assay with BV-2 was 14.2%.
Turning to `C=C1C(=O)[C@@]23[C@H](O)C[C@@H]4C(C)(C)CC[C@@H](OC(C)=O)[C@@]4(C)[C@@H]2CC[C@@H]1[C@H]3O`, the EC50 was 0.91 µg/mL (≈ 2.42 µM) with KB [1], 0.78 µg/mL (≈ 2.07 µM) in assay [3], 0.94 µg/mL (≈ 2.5 µM) with MCF7 [4] and 3.03 µg/mL (≈ 8.05 µM) in the assay with A549 [5]. For the same molecule, in assay [2], the IC50 came to 1.3 µM. Moreover, the inhibition in the assay with BV-2 amounted to 29.4%.
For the molecule `C=C1C(=O)[C@@]23[C@H](O)C[C@@H]4C(C)(C)CCC[C@@]4(C)[C@@H]2CC[C@@H]1[C@H]3O`, the concentration giving a half-maximal response (EC50) is 0.64 µg/mL (≈ 2.01 µM) in the assay with KB [1], 0.63 µg/mL (≈ 1.98 µM) in assay [3], 0.75 µg/mL (≈ 2.36 µM) in the assay with MCF7 [4] and 1.45 µg/mL (≈ 4.55 µM) with A549 [5]. In addition, the IC50 in assay [2] stood at 1.2 µM. Further, the inhibition with BV-2 worked out at 29.4%.
Turning to `C=C1C[C@]23C(=O)C[C@H]4C(C)(C)CCC[C@]4(C)[C@H]2CC[C@H]1[C@@H]3O` [CROTONKININ A], the inhibition at 20 µg/mL (in the assay with A549 [6]; in the assay on KB [7]; with MCF7 [8]; in assay [9]) was < 50% each time. The IC50 in assay [2] was 46.2 µM. The inhibition in the assay on BV-2 was 11.2%.
For the molecule `C=C1C(=O)[C@@]23[C@H](O)C[C@@H]4[C@@](C)(COC(C)=O)CCC[C@@]4(C)[C@@H]2CC[C@@H]1[C@H]3O`, the EC50 in the assay with KB [1] came out at 0.93 µg/mL (≈ 2.47 µM); in assay [3], 0.88 µg/mL (≈ 2.34 µM); with MCF7 [4] it was 1.98 µg/mL (≈ 5.26 µM); in the assay on A549 [5] it was 2.78 µg/mL (≈ 7.38 µM).
Taken in the same sequence, the figures for `C=C1C(=O)[C@@]23CC[C@@H]4[C@@](C)(CO)CCC[C@@]4(C)[C@@H]2CC[C@@H]1C3` were 1.47 µg/mL (≈ 4.86 µM), 1.31 µg/mL (≈ 4.33 µM), 4.31 µg/mL (≈ 14.2 µM) and 6.52 µg/mL (≈ 21.6 µM).
Turning to `CC(=O)OC[C@@]1(C)CCC[C@]2(C)[C@@H]1C[C@H](O)[C@@]13C[C@@H](CC[C@@H]21)[C@H](C)C3=O`, the inhibition at 20 µg/mL (in the assay on A549 [6]; in the assay on KB [7]; in the assay on MCF7 [8]; in [9]) was < 50% throughout. In assay [2], the IC50 turned out to be 42.5 µM. Moreover, in the assay with BV-2, the inhibition was 9.5%.
As for `c1ccc2c(c1)[I+]c1ccccc1-2` [DIPHENYLENEIODONIUM], in assay [10], the IC50 was determined as 16 µM. In addition, in the assay on BV-2, the inhibition came to 94.3%.
Consider `C=C1C(=O)[C@]23C[C@H]1CC[C@H]2[C@]1(C)CCC[C@](C)(COC(C)=O)[C@H]1C[C@H]3O`, for which the half-maximal effective concentration (EC50) is 0.71 µg/mL (≈ 1.97 µM) in the assay on KB [1], 0.61 µg/mL (≈ 1.69 µM) in [3], 0.65 µg/mL (≈ 1.8 µM) with MCF7 [4] and 1.26 µg/mL (≈ 3.5 µM) with A549 [5]. In assay [2], the IC50 turned out to be 1.3 µM. The inhibition in the assay with BV-2 came to 24.8%.
`C=C1C(=O)[C@]23C[C@H]1CC[C@H]2[C@]1(C)CCCC(C)(C)[C@H]1C[C@H]3O`: the EC50 with KB [1] was 0.79 µg/mL (≈ 2.61 µM); in assay [3], 0.74 µg/mL (≈ 2.45 µM); in the assay with MCF7 [4] it was 1.47 µg/mL (≈ 4.86 µM); in the assay on A549 [5], 4.77 µg/mL (≈ 15.8 µM). Also, the IC50 in assay [2] was found to be 4 µM. In addition, the inhibition with BV-2 was found to be 23.1%.
For `C=C1C(=O)[C@]23C[C@H]1CC[C@H]2[C@]1(C)CCC[C@](C)(CO)[C@H]1C[C@H]3O`, the EC50 in the assay on KB [1] amounted to 0.87 µg/mL (≈ 2.73 µM); in assay [3], 0.82 µg/mL (≈ 2.57 µM); with MCF7 [4], 0.98 µg/mL (≈ 3.08 µM); in the assay with A549 [5] it was 3.96 µg/mL (≈ 12.4 µM). In addition, the IC50 in assay [2] stood at 1.4 µM. Besides, in the assay on BV-2, the inhibition came to 20.6%.
Regarding `C=C1C(=O)[C@@]23CC[C@@H]4[C@@](C)(COC(C)=O)CCC[C@@]4(C)[C@@H]2CC[C@@H]1C3`, the concentration for a half-maximal effect (EC50) in the assay on KB [1] came out at 3.75 µg/mL (≈ 10.9 µM); in assay [3], 2.84 µg/mL (≈ 8.24 µM); with MCF7 [4], 6.11 µg/mL (≈ 17.7 µM); in the assay with A549 [5], 6.56 µg/mL (≈ 19 µM).
With `COC(=O)[C@@H](N)CCCNC(=N)N[N+](=O)[O-]` [L-NAME], the IC50 in assay [2] worked out at 20.1 µM.
